Assay results taken from US20140335083A1, “METHODS OF TREATMENT AND PREVENTION OF EYE DISEASES” (GLAXO GROUP LIMITED, priority 2011, published 2014).

Assays:
CCR3 = target: T1, CCR3 (Mus musculus, UniProt P51678); assay: Fractional CCR3 receptor occupancy calculated from blood concentrations in juvenile mice; type: in vivo
T1 construct: endogenous in cells; host or cells: juvenile mice in vivo; CCR3-bearing cells, mainly eosinophils
T1 sequence (P51678 1-359): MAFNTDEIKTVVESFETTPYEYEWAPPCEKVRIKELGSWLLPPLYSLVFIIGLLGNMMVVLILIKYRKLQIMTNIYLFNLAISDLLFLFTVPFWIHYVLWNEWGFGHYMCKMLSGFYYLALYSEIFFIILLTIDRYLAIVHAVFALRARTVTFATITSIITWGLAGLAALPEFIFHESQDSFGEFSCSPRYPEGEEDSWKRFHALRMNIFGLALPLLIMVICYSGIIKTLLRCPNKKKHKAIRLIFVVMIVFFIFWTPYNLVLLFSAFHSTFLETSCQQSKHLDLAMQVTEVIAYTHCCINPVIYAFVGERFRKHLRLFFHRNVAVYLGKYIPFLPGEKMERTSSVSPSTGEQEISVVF
Method: Following dosing of 8 mg/kg i.p QD CCR3 inhibitor '994 in juvenile mice to mimic exposure effects in JR5558 mice, blood concentration at 24 hrs was calculated for 2 mg/kg i.p, 8 mg.kg i.p and 30 mg/kg i.p. doses by projecting the log linear phase of the PK profile. Blood drug concentrations were then used to determine fractional receptor occupancy using the Langmuir binding isotherm and the pKi for CCR3 inhibitor '994 (estimated in a mouse eosinophil chemotaxis assay). The receptor occupancy values are small over estimates of the true value as the pKi for CCR3 inhibitor '994 was determined in buffer and not blood. The fractional CCR3 receptor occupancy will largely be due to binding to eosinophils as this is the predominant CCR3 bearing cell population. […] This same group also used very small doses of anti-CCR3 antibodies dosed by intravitreal injection to limit laser-induced CNV in mouse models and these very small doses would have very limited impact of fractional receptor occupancy even if they were able to access the systemic circulation. In addition, topical dosing of CCR3 inhibitor '994 as an eye drop formulation was also efficacious in the JR5558 model. […] It is highly likely however that systemic dosing drives exposure of CCR3 antagonist in the eye and ultimately the effect on disease and the exposure in the eye is likely to be a complex function of the systemic exposure and thus an understanding of the systemic pharmacokinetics driving efficacy may be important in profiling systemic therapies.

[1] = tested on: spontaneous CNV in JR5558 mice; assay: JR5558 spontaneous CNV model, CNV area and number by fluorescein angiography; type: in vivo
Method: JR5558 mice develop CNV (on an atrophic background) spontaneously with CNV lesions first emerging approximately 12 days after birth. JR5558 mice were intraperitoneally treated with various amounts of a rat anti-mouse VEGF receptor (VEGFR)-2 blocking antibody (MAB4431; R&D systems) or a purified rat non-immune isotype match control IgG2α antibody (R&D systems) starting from P14 for a total of 10 doses in 11 days and CNV development was analyzed by fluorescein angiography (FA) 24 hours after the last dose on P25. For Mice treated with CCR3 inhibitor '994 they were dosed intraperitoneally or by eye drop with various concentrations of the drug starting at P14 for a total of 12 days and CNV development was analyzed by FA 24 hours after the last dose on P26. To study the combination effects of anti-VEGFR2 antibody and CCR3 inhibitor '994, mice were treated intraperitoneally with each material alone or in combination starting from P14 for a total of 10 doses in 11 days and CNV development was analyzed by FA 24 hours after the last dose on P25. Experiments exploring the effects of VEGF-A and CCR3 antagonists on vascular permeability from established CNV lesions, JR5558 mice utilised dosing for only two days after the development of CNV lesions and were treated with various amounts of the VEGFR-2 antibody or CCR3 inhibitor '994, or in combinations on P24 and P25. Fluorescein Angiography (FA) was performed on P26.
The pupils of mice were dilated with 2.5% tropicamide (Bausch & Lomb, Rochester, N.Y.) and 0.2 ml of 2% fluorescein sodium (Bausch & Lomb) diluted in water was administered by intraperitoneal injection. A Kowa Genesis-Df fundus camera (Kowa, Tokyo, Japan) was used to obtain fluorescein angiograms at early (90 seconds after fluorescein injection) and late (7 min) phases of dye transit. At the early phase, the vasculature of CNV tissue is clearly defined by the intravascular fluorescein dye. At the late phase, extravascular fluorescein is evident as patches of hyperfluorescence. To quantify the CNV area, Image J program was used to determine the size of each of the hyperfluorescence CNV in each eye with FA images from the early phase. Permeability of each CNV was determined by subtracting the hyper-fluorescent area of early phase (90 second post fluorescein injection) from late phase (7 minutes post fluorescein injection) FA images by using Image J.
JR5558 mice are a strain of mice with an unidentified genetic defect which causes them to develop spontaneous CNV in both retinae with a predictable time course with the first lesions initiating at about post-natal day 12. As such treatment with CCR3 inhibitor '994 was initiated at day 12 and continued for 12 days at which point animals were examined by retinal fluorescence angiography to quantitate the total CNV lesion load and the total number of CNV lesions present in the retinae. Treatment of animals with CCR3 inhibitor '994 led to suppression of both total lesion area (see, FIG. 3, Table 3) and in the total number of CNV lesions present in the retinae (see, FIG. 3, Table 4) when dosed i.p. at either 8 mg/kg QD or 30 mg/kg QD but not when the dose was 2 mg/kg QD.

[2] = 2 mg/kg i.p. QD v Vehicle, 12 days P14-P26, fluorescence angiography
[3] = 8 mg/kg i.p. QD v Vehicle, 12 days P14-P26, fluorescence angiography
[4] = 30 mg/kg i.p. QD v Vehicle, 12 days P14-P26, fluorescence angiography
[5] = eye drop study, 1 mg/ml, 5 ul eye drop to each eye BID v Vehicle, P14-P26
[6] = eye drop study, 8 mg/kg i.p. BID comparator v Vehicle, P14-P26
[7] = eye drop study, 10 mg/ml, 5 ul eye drop to each eye BID v Vehicle, P14-P26

fractional CCR3 receptor occupancy (CCR3; 2 mg/kg i.p., 24 h trough): 3.1%
fractional CCR3 receptor occupancy (CCR3; 2 mg/kg i.p., at 8 hours): 97.95%
fractional CCR3 receptor occupancy (CCR3; 8 mg/kg i.p., 24 h trough): 11.36%
fractional CCR3 receptor occupancy (CCR3; 8 mg/kg i.p., at 8 hours): 99.48%
fractional CCR3 receptor occupancy (CCR3; 30 mg/kg i.p., 24 h trough): 32.45
fractional CCR3 receptor occupancy (CCR3; 30 mg/kg i.p., at 8 hours): 99.86%
SMILES: NC(=O)c1ccc(CNC(=O)NC[C@H]2CN(Cc3ccc(Cl)c(Cl)c3)CCO2)cc1 [CCR3 inhibitor '994, 4-[[[[[[(2s)-4-[(3,4-dichlorophenyl)methyl]-2-morpholinyl]methyl]-amino]carbonyl]-amino]methyl]benzamide]
Difference in mean total CNV area per eye [1, 2]: −0.0065
Difference in mean total number of CNV lesions per eye [1, 2]: −1.65
Difference in mean total CNV area per eye [1, 3]: −0.0171
Difference in mean total number of CNV lesions per eye [1, 3]: −5.03
Difference in mean total CNV area per eye [1, 4]: −0.0264
Difference in mean total number of CNV lesions per eye [1, 4]: −5.20
Difference in mean total CNV area per eye ([1]; BID study (Table 5), 8 mg/kg BID v Vehicle, 12 days P14-P26, fluorescence angiography): −0.0214
Difference in mean number of CNV lesions per eye ([1]; BID study (Table 6), 8 mg/kg BID v Vehicle, 12 days P14-P26, fluorescence angiography): −4.63
effect on CNV lesion area and total occurring CNV lesions ([1]; combination study, 30 mg/kg QD systemic, compared to vehicle): significant reduction in both CNV lesion area and total occurring CNV lesions
Difference in mean total CNV area per eye [1, 5]: −5442.63
Difference in mean total number of CNV lesions per eye [1, 5]: −2.25
Difference in mean total CNV area per eye [1, 6]: −9853.26
Difference in mean total number of CNV lesions per eye [1, 6]: 4.95
Difference in mean total CNV area per eye [1, 7]: −8047.55
Difference in mean total number of CNV lesions per eye [1, 7]: −3.96
